The record followed here is US20060272107A1, “Hair relaxing composition comprising at least one non-hydroxide polyguanidine” (priority 2005, published 2006).

The structures appear in SMILES notation.

The assay is described as follows: Hair relaxing test: simplified aqueous composition applied to hair. On the procedure: A simplified hair relaxing composition was prepared, containing N″,N″-1,3-propanediylbis[N,N,N′,N′-tetramethylguanidine] (RN: 289474-28-8) at a concentration of 0.5M in water, as active relaxing agent. This composition was applied to naturally frizzy African hair for 20 minutes at a temperature of 30° C.
A simplified hair relaxing composition was prepared, containing N″,N″,N″″-(nitrilotri-2,1-ethanediyl)tris[N,N,N′,N′-tetramethylguanidine] (RN: 368866-05-1) at a concentration of 0.25M in water, as active relaxing agent. This composition was applied to naturally frizzy African hair for 25 minutes at a temperature of 30° C.

With `CN(C)C(=NCCN(CCN=C(N(C)C)N(C)C)CCN=C(N(C)C)N(C)C)N(C)C` [N″,N″,N″″-(nitrilotri-2,1-ethanediyl)tris[N,N,N′,N′-tetramethylguanidine]], for the setting “0.25M in water, applied for 25 minutes at 30° C”, the hair relaxing result was “effectively relaxed”.
Turning to `CN(C)C(=NCCCN=C(N(C)C)N(C)C)N(C)C` [N″,N″-1,3-propanediylbis[N,N,N′,N′-tetramethylguanidine]], the hair relaxing entry (0.5M in water, applied for 20 minutes at 30° C) is listed as “effectively relaxed”.
